# Laboratory results from patent publication US20260182217A1, “DISPLAY PANEL, ELECTRONIC DEVICE INCLUDING THE SAME, AND METHOD FOR MANUFACTURING THE DISPLAY PANEL” (priority 2024, published 2026).
# Experiment: physchem
smiles,measurement,value
CCCCCCCCC(=O)O [A11],pKa,5
